# Experimental data: a melting point compilation (Tetko et al.)
row,SMILES,melting point
1,O=C(O)c1ccnc(C(=O)O)c1,249 °C
2,CCOC(=O)C=Cc1ccc(N=[N+]([O-])c2ccc(C=CC(=O)OCC)cc2)cc1,141 °C
3,Oc1ccnc(Cl)c1,171 °C
4,NCS(=O)(=O)O,180 to 185 °C
5,C1CCC(N2CCNCC2)CC1,28 to 32 °C
6,CC(C)(Oc1ccc(C(C)(C)C)cc1)C(=O)O,97 to 98 °C
7,Cc1cnccc1N,108 °C
8,"CC1CCC(C(C)C)C(=O)C1 (single isomer, unassigned; (-))",-6 °C
9,O=[N+]([O-])c1ccc(N2CCOCC2)cc1,152 °C
10,CC1CCC(C)(COC(=O)c2ccc([N+](=O)[O-])cc2)C1(C)C (centres undefined),95 °C
11,CCCCCCCCCCCC(=O)CCCC,37 °C
12,CC(S)C(=O)NCC(=O)O (centres undefined),96 °C
13,COc1cc2oc(=O)cc(CBr)c2cc1OC,202 °C
14,CCOc1cc(OP(=S)(OC)OC)nc(CC)n1,-3.35 °C
15,Brc1cnc(N2CCNCC2)nc1,77 to 79 °C
16,CCCC(C)(COC(N)=O)COC(=O)NC(C)C (centres undefined),92 °C
17,CC(=NO)c1cccnc1,103 to 105 °C
18,CCCSP(=S)(OCC)Oc1ccc(SC)cc1 (centres undefined),-15 °C
19,CC1C(=O)C23C(O)CC4C(C)(CO)CCCC4(CO)C2C(O)CC1C3O (centres undefined),266 °C
20,CC(C)(Oc1ccc(Cl)cc1)C(=O)NC(=O)NCN1CCOCC1,100 °C
21,Cc1ccc(C)c(N2CCNCC2)c1,45 °C
22,CC12CCC(=O)C=C1CCC1C2CCC2(C)C1CCC2(O)C(=O)CO (centres undefined),215 °C
23,O=C(N(c1ccccc1)c1ccccc1)C(F)(F)C(F)(F)C(F)(F)C(F)(F)C(F)(F)C(F)(F)C(F)(F)C(F)(F)F,92 °C
24,Nc1cccnc1[N+](=O)[O-],194 to 196 °C

row,SMILES,melting point
1,CCCCCCCCCCCCCCCl,4.9 °C
2,CSc1cnccn1,44 to 47 °C
3,C1COCCNCCOCCOCCN1,89 to 92 °C
4,CCCC(C)S (centres undefined),-169 °C
5,Fc1c(F)c(Br)c(F)c(F)c1Br,78 to 81 °C
6,CCCOc1ccc(C(N)=NO)cc1,105 to 106 °C
7,CC1CCCCN1 (centres undefined),-5 to -4 °C
8,O=Cc1ccc(C=O)c([N+](=O)[O-])c1,97 °C
9,COC(=O)CC(O)(CC(=O)OC)C(=O)OC,79.3 °C
10,O=S(=O)(Cl)c1c(Cl)sc(Cl)c1Br,69 °C
11,C(COCCOCC1CO1)OCCOCC1CO1 (centres undefined),-13 °C
12,O=C(O)Cc1ccc([N+](=O)[O-])cc1[N+](=O)[O-],180 °C
13,O=C(O)CN(CCO)CCN(CC(=O)O)CC(=O)O,212 to 214 °C
14,COc1ccc(O)c([N+](=O)[O-])c1,79 °C
15,CC(C)OC(N)=O,93 °C
16,CCOC(=O)C(=O)c1ccc(Br)s1,70 to 71 °C
17,O=C1CN=C(c2ccccc2F)c2cc(Cl)ccc2N1CC1CC1,118 °C
18,NC(=O)CS(=O)C(c1ccccc1)c1ccccc1 (centres undefined),164 °C
19,COC(=O)CC1CCC(NC(=O)OC(C)(C)C)CC1 (centres undefined),81 °C
20,O=C(CO)[C@@H](O[C@H]1O[C@H](CO)[C@@H](O)[C@H](O)[C@H]1O)[C@H](O)[C@H](O)CO,168 °C
21,O=[N+]([O-])c1cncn1CCN1CCOCC1,110 °C
22,C=C(C)C1Cc2c(ccc3c2OC2COc4cc(OC)c(OC)cc4C2C3=O)O1 (centres undefined),176 °C
23,CC(CCl)OC(C)CCl (centres undefined),-97 °C
24,N#Cc1c(S)nc2c(c1C(F)(F)F)CCCC2,216 to 220 °C

row,SMILES,melting point
1,CC(C)OC(=O)C1(S(=O)(=O)c2ccc([N+](=O)[O-])cc2)CCCCCC1,83.5 °C
2,O=[N+]([O-])c1ccc(S(F)(F)(F)(F)F)cc1,38 °C
3,C=C(C)C(=O)OC1CC2CCC1(C)C2(C)C (centres undefined),-60 °C
4,CCC1(CC)C(=O)NC(=O)NC1=O,190 °C
5,O=C(OC(=O)C(F)(F)C(F)(F)C(F)(F)F)C(F)(F)C(F)(F)C(F)(F)F,-43 °C
6,S=C(c1ccc2c(c1)OCO2)N1CCCCC1,113 °C
7,CCOC(=O)c1c[nH]c(=O)nc1C(F)(F)F,165 °C
8,C=CCC1(CC(C)O)C(=O)NC(=O)NC1=O (centres undefined),158 °C
9,O=C(O)c1ccnc(Cl)c1,231 °C
10,O=Cc1ccc(C=CC(=O)O)cc1,250 to 255 °C
11,Brc1sc(Br)c2c1OCCO2,98 °C
12,CC1(C)CCC2(C(=O)O)C(O)CC3(C)C(=CCC4C5(C)CCC(O)C(C)(C=O)C5CCC43C)C2C1 (centres undefined),294 °C
13,FC(F)(F)c1nn(CN2CCCCC2)c(=S)n1N=Cc1ccc2c(c1)OCO2,122 °C
14,CCCCC(CC)COP(=O)(Oc1ccccc1)Oc1ccccc1 (centres undefined),-54 °C
15,C#CCCCCCCCCCCCCC,10 °C
16,N#CC(=Cc1cccc(O)c1)C(=O)O,230 to 233 °C
17,COC(=O)C1=C(C(=O)OC)CC2=C(CC3=C(C2)CC(C(=O)OC)=C(C(=O)OC)C3)C1,260 to 262 °C
18,O=C(O)CCOc1ccc(F)cc1,84 to 86 °C
19,O=C(O)C(O)C(O)C(O)C(O)C(=O)O (centres undefined),230 °C
20,CCCNC(=O)NCCC,105 °C
21,COC(=O)c1cnc(S)n1C,207 °C
22,CC(=O)OC1C2COC(O2)C(OC(C)=O)C1OC(C)=O (centres undefined),110 °C
23,CC(C)(C)c1cc(C=O)cc(C(C)(C)C)c1,82 to 87 °C

# Next, values leading:
row,melting point,SMILES
1,177 °C,CC(=O)c1ccc(NC(=O)c2ccccc2)c(C(=O)c2ccccc2)c1
2,115 to 117 °C,NC(CCN(Cc1ccco1)S(=O)(=O)c1ccc(Cl)cc1)=NO
3,176 °C,CC12CCC(/C(=C\Nc3ccccc3C(=O)O)C1=O)C2(C)C (centres undefined)
4,81 °C,Nc1ccccc1-c1ccccc1N
5,96 to 97 °C,Nc1cccnc1Oc1ccc(F)cc1F
6,-10 °C,O=Cc1ccc(F)cc1
7,62 to 66 °C,O=C=Nc1ccc(Oc2ccc(N=C=O)cc2)cc1
8,60 °C,OC(c1ccccc1)c1ccc(C(F)(F)F)cc1 (centres undefined)
9,179 °C,COc1ccccc1C1(C)CCc2oc3ccc(C)cc3c2-c2oc(C)cc21 (centres undefined)
10,170 °C,Cc1ccc2c(c1Cl)C(=O)c1ccccc1C2=O
11,45 to 48 °C,N#Cc1ccc(Oc2ccccc2)cc1
12,175 to 177 °C,c1ccc2c(c1)ccc1nncn12
13,211 °C,S=c1sc2ccccc2n1CSc1nc2ccccc2s1
14,165 to 167 °C,CN(C)c1ccc(CNC2=CC(=O)c3ccccc3C2=O)cc1
15,178 to 179 °C,Nc1ccc(C(C/C(=N/O)c2ccccc2)NO)cc1 (centres undefined)
16,159 °C,Nc1cccc(Cl)c1C(=O)O
17,91 to 92 °C,Ic1ccc(-n2cccn2)cc1
18,139 °C,Nc1cc([N+](=O)[O-])ccc1Br
19,89 °C,CC(=O)SCC(Cc1ccccc1)C(=O)NCC(=O)OCc1ccccc1 (centres undefined)
20,212 to 213 °C,Cc1[nH]c2ccccc2c1C#N

row,melting point,SMILES
1,76 to 78 °C,O=C(O)CCc1cccc(Br)c1
2,217 °C,O=C(Nc1ccccc1)c1cccc2c(Br)cccc12
3,68 °C,O=C(NO)OCc1ccccc1
4,191 to 196 °C,Oc1ccc(Br)cc1C=NCCN=Cc1cc(Br)ccc1O
5,271 °C,CN(C)c1ccc(C2C3=C(CC(C)(C)CC3=O)Nc3c2ccc2ccccc32)cc1 (centres undefined)
6,95 °C,CC(=O)C(=CN)Cc1ccccc1
7,70 to 71 °C,CC(=O)N(C)c1ccc(N)cc1
8,251 °C,O=C1C(C(O)c2ccccc2Cl)C(C(F)(F)F)=NN1c1ccccc1 (centres undefined)
9,144 °C,CCOC(=O)C(CCc1ccccc1)NC(C)C(=O)N1CCCC1C(=O)O (centres undefined)
10,168 °C,O=C(N[C@@H](Cc1ccccc1Br)C(=O)O)OCC1c2ccccc2-c2ccccc21
11,160 °C,O=c1oc2cc(O)ccc2s1
12,155 °C,Clc1ccc(C=NC2Nc3ccccc3N2)cc1
13,24 to 27 °C,OC[C@@H](O)COCc1ccccc1
14,49 to 50 °C,OCc1csc2ccccc12
15,11.5 °C,CCOC(=O)c1cccc(C(=O)OCC)c1
16,78 to 80 °C,COc1ccc(CCNc2ccccc2N)cc1OC
17,62 to 64 °C,OCc1cc(-c2cccs2)on1
18,128 °C,O=C(O)COCCN1C(=O)c2ccccc2C1=O
19,206 to 207 °C,O=C(O)c1ccccc1Cn1cncn1
20,44 to 47 °C,CCOc1ccc(CC#N)cc1

row,melting point,SMILES
1,10 °C,CCCCCCc1ccc(C#Cc2ccc(CC)cc2)cc1
2,55 °C,COc1ccc2c(c1)C(=O)C2
3,141 °C,O=C1C=C(NCCc2ccccc2)C(=O)c2ccccc21
4,238 to 240 °C,CC(=O)N=c1c(-c2ccccc2)cc2cc3cc(-c4ccccc4)c(=NC(C)=O)n(C(C)=O)c3cc2n1C(C)=O
5,163 °C,COc1ccc(Br)c(C)c1C(=O)O
6,160 °C,O=C(O)c1c(O)cccc1F
7,161 °C,COc1ccc(-c2nnc3n2NC(c2ccco2)S3)cc1 (centres undefined)
8,102 °C,N#C/C(=C\c1ccccc1Cl)c1nc(-c2cccs2)cs1
9,195 °C,Nc1c(Br)cc(Br)cc1Cc1ccccc1
10,81 °C,N#CCC(=O)c1cccc(Cl)c1
11,199 °C,O=[N+]([O-])c1cccc(-c2nnc3n2NC(c2ccc(Cl)cc2)S3)c1 (centres undefined)
12,83 to 86 °C,N#CCSc1ccc2ccccc2c1
13,94 to 98 °C,O=[N+]([O-])c1cc(CO)ccc1O
14,265 to 270 °C,Cc1cc(-c2ccc(NC=O)c(C)c2)ccc1NC=O
15,138 °C,O=C(O)CCc1ccc(O)c(O)c1
16,164 to 167 °C,NC(=NO)c1ccc(Oc2ccc(F)cc2F)c([N+](=O)[O-])c1
17,196 °C,COc1cc(C=C2C(=O)NN=C2c2c(O)c3ccccc3n(C)c2=O)cc(OC)c1OC
18,91 to 93 °C,COc1cccc(CNC(N)=S)c1
